Data published in patent US10766869B2, “Triazoles for the treatment of demyelinating dieases” (Vertex Pharmaceuticals Incorporated, priority 2015, dated 2020).

Test system: primary rat mixed cortical cells
Assay: In vitro myelination assay (MBP positive myelin strands, fold myelin pixels above background)
Assay type: cell-based
Details: Rattus norvegicus, relative to baseline of no added compound; for fold induction at 1 µM: 1.0 μM compound, read-out: Fold myelin pixels above background, 1.0 μM; for fold induction at 10 µM: 10.0 μM compound, read-out: Fold myelin pixels above background, 10.0 μM
Outline: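 P1 rat mixed cortical cultures (neurons, OPCs, oligodendrocytes, astrocytes, microglia) grown 14 days at 37 °C with compound, half-medium refreshed with compound on days 6 and 10. Fixed cells stained for MBP; MBP-positive myelin strand pixels per well quantified by automated imaging, reported as fold over no-compound baseline at 1.0 and 10.0 μM.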

SMILES | fold induction at 1 µM | fold induction at 10 µM
CCc1cc(Nc2ncn(-c3ccc(C(F)(F)F)cc3)n2)cc(N2CCN(C3COC3)CC2)c1 [Compound 322, N-[3-ethyl-5-[4-(oxetan-3-yl)piperazin-1-yl]phenyl]-1-[4-(trifluoromethyl)phenyl]-1,2,4-triazol-3-amine] | 1 to 10 | 1 to 10
Cc1cc(Nc2ncn(-c3cc(C)cc(F)c3)n2)cc(N2CCN(C3COC3)CC2)c1 [Compound 323, 1-(3-fluoro-5-methyl-phenyl)-N-[3-methyl-5-[4-(oxetan-3-yl)piperazin-1-yl]phenyl]-1,2,4-triazol-3-amine] | 1000 to 10000 | 100 to 1000
Cc1cc(Nc2ncn(-c3cc(F)cc(F)c3)n2)cc(N2CCC(N3CCOCC3)CC2)c1 [Compound 324, 1-(3,5-difluorophenyl)-N-[3-methyl-5-(4-morpholino-1-piperidyl)phenyl]-1,2,4-triazol-3-amine] | 1 to 10 | 10 to 100
COCC1CN(c2cc(C)cc(Nc3ncn(-c4cc(F)cc(F)c4)n3)c2)CCO1 (stereo not shown) [Compound 325, 1-(3,5-difluorophenyl)-N-[3-[2-(methoxymethyl)morpholin-4-yl]-5-methyl-phenyl]-1,2,4-triazol-3-amine] | 10 to 100 | 10 to 100
Cc1cc(Nc2ncn(-c3ccccc3)n2)cc(N2CCN(C(C)C)CC2)c1 [Compound 326, N-[3-(4-isopropylpiperazin-1-yl)-5-methyl-phenyl]-1-phenyl-1,2,4-triazol-3-amine] | 1000 to 10000 | ≤ 1
Fc1ccc(-n2cnc(Nc3cc(C4CC4)nc(N4CCCCC4)c3)n2)cc1F [Compound 327, 2-cyclopropyl-N-[1-(3,4-difluorophenyl)-1,2,4-triazol-3-yl]-6-(1-piperidyl)pyridin-4-amine] | 100 to 1000 | 100 to 1000
Cc1cc(Nc2ncn(-c3cc(F)cc(F)c3)n2)cc(C2CCCN(C)C2)c1 (stereo not shown) [Compound 328, 1-(3,5-difluorophenyl)-N-[3-methyl-5-(1-methyl-3-piperidyl)phenyl]-1,2,4-triazol-3-amine] | 100 to 1000 | 100 to 1000
Cc1cc(Nc2ncn(-c3cc(F)cc(F)n3)n2)cc(N2CCN(C3COC3)CC2)c1 [Compound 329, 1-(4,6-difluoro-2-pyridyl)-N-[3-methyl-5-[4-(oxetan-3-yl)piperazin-1-yl]phenyl]-1,2,4-triazol-3-amine] | 1 to 10 | 10 to 100
CCc1cc(Nc2ncn(-c3ccccc3)n2)cc(N2CCN(C3COC3)CC2)c1 [Compound 330, N-[3-ethyl-5-[4-(oxetan-3-yl)piperazin-1-yl]phenyl]-1-phenyl-1,2,4-triazol-3-amine] | 1000 to 10000 | ≤ 1
Fc1cc(F)cc(-n2cnc(Nc3cc(C4CC4)nc(N4CC[C@H](F)C4)c3)n2)c1 [Compound 332, 2-cyclopropyl-N-[1-(3,5-difluorophenyl)-1,2,4-triazol-3-yl]-6-[(3S)-3-fluoropyrrolidin-1-yl]pyridin-4-amine] | 100 to 1000 | 10 to 100
Cc1cc(Nc2ncn(-c3ccccc3)n2)cc(C2CCN(C)CC2)c1 [Compound 333, N-[3-methyl-5-(1-methyl-4-piperidyl)phenyl]-1-phenyl-1,2,4-triazol-3-amine] | 1000 to 10000 | ≤ 1
Cc1cc(Nc2ncn(-c3ccccc3)n2)cc(NC2CCN(C3COC3)CC2)c1 [Compound 334, 5-methyl-N1-[1-(oxetan-3-yl)-4-piperidyl]-N3-(1-phenyl-1,2,4-triazol-3-yl)benzene-1,3-diamine] | 100 to 1000 | 1000 to 10000
Clc1cc(Nc2ncn(-c3ccccc3)n2)cc(N2CCOCC2)c1 [Compound 335, N-(3-chloro-5-morpholino-phenyl)-1-phenyl-1,2,4-triazol-3-amine] | 1000 to 10000 | 10 to 100
Fc1cc(Nc2ncn(-c3ccccc3)n2)cc(N2CCCC2)c1 [Compound 336, N-(3-fluoro-5-pyrrolidin-1-yl-phenyl)-1-phenyl-1,2,4-triazol-3-amine] | 1 to 10 | ≤ 1
Cc1cc(Nc2ncn(-c3ccccc3)n2)cc(N2CCCN(C3CC3)CC2)c1 [Compound 337, N-[3-(4-cyclopropyl-1,4-diazepan-1-yl)-5-methyl-phenyl]-1-phenyl-1,2,4-triazol-3-amine] | 100 to 1000 | ≤ 1
CCc1cc(Nc2ncn(-c3cc(C)ccc3F)n2)cc(N2CCN(C3COC3)CC2)c1 [Compound 338, N-[3-ethyl-5-[4-(oxetan-3-yl)piperazin-1-yl]phenyl]-1-(2-fluoro-5-methyl-phenyl)-1,2,4-triazol-3-amine] | 1 to 10 | 10 to 100

SMILES | fold induction at 1 µM | fold induction at 10 µM
Fc1cncc(-n2cnc(Nc3cc(C4CC4)cc(N4CCN(C5COC5)CC4)c3)n2)c1 [Compound 339, N-[3-cyclopropyl-5-[4-(oxetan-3-yl)piperazin-1-yl]phenyl]-1-(5-fluoro-3-pyridyl)-1,2,4-triazol-3-amine] | 100 to 1000 | 10 to 100
Cc1cc(Nc2ncn(-c3ccccc3)n2)cc(C2CCCN(C3CC3)C2)c1 (stereo not shown) [Compound 340, N-[3-(1-cyclopropyl-3-piperidyl)-5-methyl-phenyl]-1-phenyl-1,2,4-triazol-3-amine] | 100 to 1000 | ≤ 1
CCc1cc(Nc2ncn(-c3cnccn3)n2)cc(N2CC(N3CCOCC3)C2)c1 [Compound 341, N-[3-ethyl-5-(3-morpholinoazetidin-1-yl)phenyl]-1-pyrazin-2-yl-1,2,4-triazol-3-amine] | ≤ 1 | 1 to 10
Cc1cc(Nc2ncn(-c3cccnc3)n2)cc(NC2CCN(C3COC3)CC2)c1 [Compound 342, 5-methyl-N1-[1-(oxetan-3-yl)-4-piperidyl]-N3-[1-(3-pyridyl)-1,2,4-triazol-3-yl]benzene-1,3-diamine] | 1000 to 10000 | 10 to 100
Fc1cc(Nc2ncn(-c3ccc(F)cc3F)n2)cc(N2CCCOCC2)c1 [Compound 343, 1-(2,4-difluorophenyl)-N-[3-fluoro-5-(1,4-oxazepan-4-yl)phenyl]-1,2,4-triazol-3-amine] | ≤ 1 | 100 to 1000
CS(=O)(=O)c1cc(Nc2ncn(-c3cc(F)cc(F)c3)n2)cc(N2CCN(C3COC3)CC2)c1 [Compound 344, 1-(3,5-difluorophenyl)-N-[3-methylsulfonyl-5-[4-(oxetan-3-yl)piperazin-1-yl]phenyl]-1,2,4-triazol-3-amine] | 100 to 1000 | 10 to 100
COc1ccc(-n2cnc(Nc3cc(Cl)nc(N4CCOCC4)c3)n2)cc1OC [Compound 345, 2-chloro-N-[1-(3,4-dimethoxyphenyl)-1,2,4-triazol-3-yl]-6-morpholino-pyridin-4-amine] | 10 to 100 | 1 to 10
Fc1cc(F)cc(-n2cnc(Nc3cc(Br)cc(N4CCOCC4)c3)n2)c1 [Compound 346, N-(3-bromo-5-morpholino-phenyl)-1-(3,5-difluorophenyl)-1,2,4-triazol-3-amine] | 1000 to 10000 | 1000 to 10000
CN(C)C1CCN(c2cc(F)cc(Nc3ncn(-c4ccc(F)cc4F)n3)c2)C1 (stereo not shown) [Compound 347, 1-(2,4-difluorophenyl)-N-[3-[3-(dimethylamino)pyrrolidin-1-yl]-5-fluoro-phenyl]-1,2,4-triazol-3-amine] | ≤ 1 | ≤ 1
FC(F)c1cc(Nc2ncn(-c3ccccc3)n2)cc(N2CCN(C3CC3)CC2)c1 [Compound 348, N-[3-(4-cyclopropylpiperazin-1-yl)-5-(difluoromethyl)phenyl]-1-phenyl-1,2,4-triazol-3-amine] | 1000 to 10000 | 100 to 1000
Cc1cc(Nc2ncn(-c3cc(F)cc(F)c3)n2)cc(N2CCN(C)C3(COC3)C2)c1 [Compound 349, 1-(3,5-difluorophenyl)-N-[3-methyl-5-(9-methyl-2-oxa-6,9-diazaspiro[3.5]nonan-6-yl)phenyl]-1,2,4-triazol-3-amine] | 10 to 100 | 100 to 1000
Cc1cc(Nc2ncn(-c3cc(F)cc(F)c3)n2)cc(N2CCN(C(=O)OCC(F)(F)F)CC2)c1 [Compound 350, 2,2,2-trifluoroethyl 4-[3-[[1-(3,5-difluorophenyl)-1,2,4-triazol-3-yl]amino]-5-methyl-phenyl]piperazine-1-carboxylate] | ≤ 1 | ≤ 1
Fc1cc(Nc2ncn(-c3cccc(F)c3)n2)cc(NC2CNC2)c1 [Compound 351, N1-(azetidin-3-yl)-5-fluoro-N3-[1-(3-fluorophenyl)-1,2,4-triazol-3-yl]benzene-1,3-diamine] | 10 to 100 | ≤ 1
Cc1cc(Nc2ncn(-c3cc(F)cc(F)c3)n2)cc(N2CCN(C(=O)C(F)(F)F)CC2)c1 [Compound 352, 1-[4-[3-[[1-(3,5-difluorophenyl)-1,2,4-triazol-3-yl]amino]-5-methyl-phenyl]piperazin-1-yl]-2,2,2-trifluoro-ethanone] | ≤ 1 | 100 to 1000
COCc1cc(-n2cnc(Nc3cc(C4CC4)cc(N4CCN(C5COC5)CC4)c3)n2)ncn1 [Compound 353, N-[3-cyclopropyl-5-[4-(oxetan-3-yl)piperazin-1-yl]phenyl]-1-[6-(methoxymethyl)pyrimidin-4-yl]-1,2,4-triazol-3-amine] | 1000 to 10000 | 100 to 1000
COc1ccc(-n2cnc(Nc3cc(C4CC4)nc(N4CCOCC4)c3)n2)cc1OC [Compound 354, 2-cyclopropyl-N-[1-(3,4-dimethoxyphenyl)-1,2,4-triazol-3-yl]-6-morpholino-pyridin-4-amine] | 1 to 10 | 100 to 1000
